Reference: patent US20190307692A1, “NANOLIPOPROTEIN PARTICLES AND RELATED COMPOSITIONS METHODS AND SYSTEMS FOR IMPROVED DRUG LOADING” (Lawrence Livermore National Security, LLC, priority 2016, published 2019)
Structures can show the parent of a compound that is named as a salt.

What was measured:
[1] = compared with lyso 14:0, 16:0 and 18:0; cited from earlier work
[2] = Drug (paclitaxel) loading into NLPs, quantified by reverse phase HPLC after SEC purification; assay type: physicochemical; conditions: for amount of paclitaxel loaded into NLPs (mass of drug over total mass of particle components): NLPs prepared with the named lysophospholipid at 50 mol % content
Protocol: For NLP assemblies using DOPC as the membrane forming lipid with apoE422k, the total lipid-to-apoE422K molar ratio was 80:1. Briefly, lipids were either prepared or obtained in chloroform and aliquoted into glass vials. Chloroform was then removed using a stream of N2 under agitation to form a thin lipid film. Lipids were solubilized in PBS buffer (137 mM sodium chloride, 2.7 mM potassium chloride, 10 mM phosphate buffer, pH 7.4) using 30 mM sodium cholate. After addition of the apoE422k (150 μM in final assembly volume), samples were incubated at 23.8° C. for at least 2 hours.
Assemblies were dialyzed overnight against PBS to remove cholate. Samples were subsequently analyzed and purified by SEC (size exclusion chromatography) (Superdex 200, 10/300 GL column, GE Healthcare, Piscataway, N.J.) in PBS buffer (0.5 mL/min flow rate). The exclusion limit of the column was determined with Blue Dextran 2000. SEC fractions (500 μl) were collected every 60 s. SEC fractions containing homogeneous NLP populations were concentrated using 50 kDa MWCO spin concentrators (Sartorius). The apoE422k concentration was determined using NanoDrop (Thermo Scientific). The concentrated NLP samples were then stored at 4° C. until further use.
The solution was then spun down to remove any precipitate, and then the supernatant was purified by SEC (GE HiTrap desalting column) in PBS buffer (0.5 ml/min flow rate). The collected fractions containing NLP were then analyzed by reverse phase HPLC to quantify each component of the NLP.
The ability of the two NLP populations to accommodate the drug of interest, paclitaxel, was then assessed. Following addition of paclitaxel to the two solutions, the NLP solutions were re-purified to remove free paclitaxel. The solutions were then analyzed by reverse phase HPLC to assess the amount of paclitaxel that was incorporated into the particles.
Further experiments were carried out to assess the relationship between lysophospholipid content and paclitaxel loading. NLPs were prepared with initial lysophospholipid contents (lyso 14:0) between 0 and 70 mole percent (i.e. 0 mol %-70 mol %). After paclitaxel addition and subsequent purification, the composition of these particles was again analyzed using reverse phase HPLC.

[3] = pH 5, 7 or 9; cited from earlier work

SMILES: CCCCCCCC/C=C\CCCCCCCC(=O)OC[C@@H](O)COP(=O)([O-])OCC[N+](C)(C)C [lyso 18:1, 1-(9Z-octadecenoyl)-sn-glycero-3-phosphocholine]
- aqueous solubility / CMC (in words) [1]: lowest solubility
- amount of paclitaxel loaded into NLPs (mass of drug over total mass of particle components) [2]: least amount

SMILES: CC(=O)O[C@H]1C(=O)[C@@]2(C)[C@H]([C@H](OC(=O)c3ccccc3)[C@]3(O)C[C@H](OC(=O)[C@H](O)[C@@H](NC(=O)c4ccccc4)c4ccccc4)C(C)=C1C3(C)C)[C@]1(OC(C)=O)CO[C@@H]1C[C@@H]2O [paclitaxel]
- paclitaxel content in NLPs (mass of drug over total mass of particle components) ([2]; 10-20 mol % initial lysophospholipid (lyso 14:0)): approximately 5 % by mass
- paclitaxel loading in NLPs (mass of drug over total mass of particle components) ([2]; 30-60 mol % initial lysophospholipid (lyso 14:0)): 10-20%
- measured quantity of paclitaxel in NLPs ([2]; 30 mol % lysophospholipid group): about 0.23 micrograms
- paclitaxel loading in NLPs (mass of drug over total mass of particle components) ([2]; 70 mol % initial lysophospholipid (lyso 14:0)): > 30 % by mass
- measured quantity of paclitaxel in NLPs ([2]; 70 mol % lysophospholipid group): about 0.23 micrograms
- paclitaxel accepted by NLPs from second SEC peak versus larger particles from peak 1 ([2]; NLPs with 40 mol % initial lysophospholipid (lyso 14:0), two SEC populations): substantially more
- paclitaxel content in NLPs (mass of drug over total mass of particle components) ([2]; NLPs without lysophospholipids (0 mol % lyso 14:0), DOPC/apoE422k): 1-2 % by mass of the particle
- incorporation into NLP ([2]; when aided by lysophospholipid): capable of being incorporated into NLP to a useful mass percent

SMILES: COc1cccc2c1C(=O)c1c(O)c3c(c(O)c1C2=O)C[C@@](O)(C(=O)CO)C[C@@H]3O[C@H]1C[C@H](N)[C@H](O)[C@H](C)O1 [doxorubicin hydrochloride]
- incorporation in NLPs ([2]; regardless of whether a lysophospholipid is used as part of the drug loading process): does not incorporate to a useful degree
- LogKow [3]: 3.5

SMILES: CCCCCCCCCCCCCC(=O)OC[C@@H](O)COP(=O)([O-])OCC[N+](C)(C)C [lyso 14:0, 1-tetradecanoyl-sn-glycero-3-phosphocholine]
- amount of paclitaxel loaded into NLPs (mass of drug over total mass of particle components) [2]: over 20%
